Laboratory results reported in PubChem BioAssay AID1963864 (Molecular Pharmacology Branch, DTP, NCI, 2024).

Tested on: KRAS PDC multicell spheroid viability
Assay: Anticancer human tumor 521955-158-R6-J3-PDC patient-derived pancreatic carcinoma cell line growth inhibition [KRAS2]
Details: for IC50: curve of first compound; for viability, T/C: stronger effect = lower value
Source text: Multicellular complex tumor spheroid response to RAS pathway inhibitors in combination with a targeted agents in patient-derived cell lines with oncogenic KRAS variants from multiple cancer types
A high-throughput screen of multi-cell type tumor spheroids was designed to identify active combinations of targeted small molecules and KRAS pathway inhibitors. Complex spheroids include a stromal component modeled by human endothelial cells (HUVEC) and fibroblasts modeled by human mesenchymal stem cells (MSCs). The concentration ranges selected for each drug and investigational agent were based upon clinically achievable concentrations if the clinical Cmax of the agent was known.
Compounds. The drugs and investigational agents: BI-3406 (NSC825286), BAY-293 (NSC824723), batoprotafib (TNO155; NSC825523), sotorasib (AMG 510; NSC818433), MRTX1257 (NSC819558), elimusertib (BAY 1895344; NSC800525), molibresib (GSK525762; NSC774829), temuterkib (LY3214996; NSC803410), venetoclax (NSC766270), alisertib (NSC759677), olaparib (NSC753686), talazoparib (NSC767125), erdafitinib (NSC781556), ipatasertib (NSC767898), cabozantinib (NSC761068), nintedanib (NSC756659), abemaciclib (NSC768073), docetaxel (NSC628503), trametinib (NSC758246), and sapanisertib (NSC764658) were obtained from the National Cancer Institute (NCI) Developmental Therapeutics Program Chemical Repository. The FDA-approved anticancer drug set is available from the Developmental Therapeutics Program. […] The stock solutions were prepared in dimethyl sulfoxide (DMSO, Sigma-Aldrich, St. Louis, MO, cat. D2650) at 800-fold the tested concentration and stored at -70 degrees C prior to their use. All drugs and investigational agents were tested over a range starting from a high concentration at or near the clinical Cmax and decreasing in half-log increments. If the clinical Cmax for an agent had not been determined, the highest concentration tested was 10 microM.
Cell Culture. All cells were maintained in an incubator at 37 degrees C and 5% CO2 with 95% humidity. The PDC lines were cultured according to standard operating procedures established by the NCI PDMR (https://pdmr.cancer.gov/sops/default.htm). Briefly, all PDCs were thawed and cultured in Matrigel-coated flasks prepared with a working solution of 1X Ham's F-12 nutrient mix, without supplementation (Invitrogen, Waltham, MA, cat. 11765054), 100 U/mL penicillin-streptomycin (Invitrogen, cat. 15140122), and 2.5% Matrigel (Corning Inc., Corning, NY, cat. 354248) for the first three passages. All PDCs were cultured in complete DMEM/F-12 media containing advanced DMEM/F-12 (Invitrogen, cat. 12634028), 4.9% defined fetal bovine serum, heat inactivated (HyClone Laboratories Inc., Logan, UT, cat. SH30070.03HI), 389 ng/mL hydrocortisone (Sigma-Aldrich, cat. H4001), 9.7 ng/mL human EGF recombinant protein (Invitrogen, cat. PHG0313), 23.4 microg/mL adenine (Sigma-Aldrich, cat. A2786), 97.3 U/mL penicillin-streptomycin (Invitrogen, cat. 15140122), 1.9 mM L-glutamine (Invitrogen, cat. 25030081), and 9.7 microM Y-27632 dihydrochloride (Tocris Bioscience, Bristol, United Kingdom, cat. 1254). The PDCs were cultured in complete DMEM/F12 media without 9.7 microM Y-27632 dihydrochloride for at least two passages prior to the screen. The established cell line HOP-62 was cultured in RPMI 1640 medium, HEPES (Invitrogen, cat. 22400105) with 10% defined fetal bovine serum (HyClone Laboratories Inc., cat. SH30070.03) and 2 mM L-glutamine (Invitrogen, cat. 25030081). The pooled donor HUVEC were cultured in endothelial cell growth medium 2 (PromoCell, Heidelberg, Germany, cat. C-22011) and the hMSC were cultured in mesenchymal stem cell growth medium 2 (PromoCell, cat. C-28009). For all experiments, HUVEC and hMSC were used at passages </=5, while the malignant cell lines were used at passages </=15. […]

[1] = second compound 0.1 µM, first compound 0.000316 µM
[2] = second compound 0.1 µM, first compound 0.001 µM
[3] = second compound 0.1 µM, first compound 0.00316 µM
[4] = second compound 0.1 µM, first compound 0.01 µM
[5] = second compound 0.1 µM, first compound 0.0316 µM
[6] = second compound 0.1 µM, first compound 0.1 µM
[7] = second compound 0.316 µM, first compound 0.000316 µM
[8] = second compound 0.316 µM, first compound 0.001 µM
[9] = second compound 0.316 µM, first compound 0.00316 µM
[10] = second compound 0.316 µM, first compound 0.01 µM
[11] = second compound 0.316 µM, first compound 0.0316 µM
[12] = second compound 0.316 µM, first compound 0.1 µM
[13] = second compound 1 µM, first compound 0.000316 µM
[14] = second compound 1 µM, first compound 0.001 µM
[15] = second compound 1 µM, first compound 0.00316 µM
[16] = second compound 1 µM, first compound 0.01 µM
[17] = second compound 1 µM, first compound 0.0316 µM
[18] = second compound 1 µM, first compound 0.1 µM
[19] = second compound 3.16 µM, first compound 0.000316 µM
[20] = second compound 3.16 µM, first compound 0.001 µM
[21] = second compound 3.16 µM, first compound 0.00316 µM
[22] = second compound 3.16 µM, first compound 0.01 µM
[23] = second compound 3.16 µM, first compound 0.0316 µM
[24] = second compound 3.16 µM, first compound 0.1 µM
[25] = second compound 10 µM, first compound 0.000316 µM
[26] = second compound 10 µM, first compound 0.001 µM
[27] = second compound 10 µM, first compound 0.00316 µM
[28] = second compound 10 µM, first compound 0.01 µM
[29] = second compound 10 µM, first compound 0.0316 µM
[30] = second compound 10 µM, first compound 0.1 µM
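Further: drug exposure lasted seven days.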
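Wherever viability, T/C is given: 100% = DMSO vehicle wells and lower means fewer viable cells.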

Compound | IC50 (second compound 0.1 µM) | IC50 (second compound 0.316 µM) | IC50 (second compound 1 µM) | IC50 (second compound 3.16 µM) | IC50 (second compound 10 µM) | viability, T/C [4] | viability, T/C [5] | viability, T/C [6] | viability, T/C [10] | viability, T/C [11] | viability, T/C [12] | viability, T/C [16] | viability, T/C [17] | viability, T/C [18] | viability, T/C [22] | viability, T/C [23] | viability, T/C [24] | viability, T/C [28] | viability, T/C [29] | viability, T/C [30] | other results
Cn1ncnc1[C@H]1c2n[nH]c(=O)c3cc(F)cc(c23)N[C@@H]1c1ccc(F)cc1 + C=CC(=O)N1CCN(c2nc(=O)n(-c3c(C)ccnc3C(C)C)c3nc(-c4c(O)cccc4F)c(F)cc23)C(C)C1 | > 100 nM | > 100 nM | > 100 nM | > 100 nM | > 100 nM | 107% | 96.5% | 95% | 94.9% | 105% | 108% | 97.5% | 110% | 118% | 100% | 99.7% | 96.4% | 83.2% | 82.5% | 78% | viability, T/C [1]: 106%; viability, T/C [2]: 109%; viability, T/C [3]: 101%; viability, T/C [7]: 110%; viability, T/C [8]: 102%; viability, T/C [9]: 116%; viability, T/C [13]: 114%; viability, T/C [14]: 109%; viability, T/C [15]: 118%; viability, T/C [19]: 102%; viability, T/C [20]: 104%; viability, T/C [21]: 101%; viability, T/C [25]: 81.8%; viability, T/C [26]: 80.2%; viability, T/C [27]: 83.4%
CC(=O)OC12COC1CC(O)C1(C)C(=O)C(O)C3=C(C)C(OC(=O)C(O)C(NC(=O)OC(C)(C)C)c4ccccc4)CC(O)(C(OC(=O)c4ccccc4)C21)C3(C)C (stereo not given) + COc1cc2nc(C)nc(NC(C)c3cc(N)cc(C(F)(F)F)c3)c2cc1OC1CCOC1 | > 3160 nM | > 3160 nM | > 3160 nM | > 3160 nM | > 3160 nM | 78.7% | 74.6% | 69.7% | 66.3% | 66.5% | 70.2% | 75.6% | 67.3% | 66.5% | 52.6% | 61.3% | 55.7% | 68.5% | 62.2% | 72.6% | viability, T/C (second compound 0.1 µM, first compound 0.316 µM): 77.8%; viability, T/C (second compound 0.1 µM, first compound 1 µM): 85.7%; viability, T/C (second compound 0.1 µM, first compound 3.16 µM): 114%; viability, T/C (second compound 0.316 µM, first compound 0.316 µM): 60.3%; viability, T/C (second compound 0.316 µM, first compound 1 µM): 90.7%; viability, T/C (second compound 0.316 µM, first compound 3.16 µM): 117%; viability, T/C (second compound 1 µM, first compound 0.316 µM): 78.5%; viability, T/C (second compound 1 µM, first compound 1 µM): 86.2%; viability, T/C (second compound 1 µM, first compound 3.16 µM): 106%; viability, T/C (second compound 3.16 µM, first compound 0.316 µM): 70%; viability, T/C (second compound 3.16 µM, first compound 1 µM): 111%; viability, T/C (second compound 3.16 µM, first compound 3.16 µM): 120%; viability, T/C (second compound 10 µM, first compound 0.316 µM): 84.6%; viability, T/C (second compound 10 µM, first compound 1 µM): 102%; viability, T/C (second compound 10 µM, first compound 3.16 µM): 120%
CC(C)n1nc(-c2ccc3oc(N)nc3c2)c2c(N)ncnc21 + CC1OCC2(CCN(c3cnc(Sc4ccnc(N)c4Cl)c(N)n3)CC2)C1N | > 100 nM | 56.3 nM | 55.7 nM | 33.5 nM | 23.5 nM | 65.3% | 57.4% | 50% | 65.6% | 56.2% | 44.3% | 66.8% | 56% | 44.1% | 70.7% | 51.3% | 40.2% | 63.1% | 47.3% | 38.3% | viability, T/C [1]: 89%; viability, T/C [2]: 85.8%; viability, T/C [3]: 74%; viability, T/C [7]: 92.3%; viability, T/C [8]: 84.2%; viability, T/C [9]: 71.7%; viability, T/C [13]: 88.3%; viability, T/C [14]: 86.5%; viability, T/C [15]: 74.2%; viability, T/C [19]: 112%; viability, T/C [20]: 113%; viability, T/C [21]: 88.8%; viability, T/C [25]: 99.1%; viability, T/C [26]: 101%; viability, T/C [27]: 89.7%
